Laboratory results from paper PMC8431030, “In Vitro and In Silico Evaluation of New 1,3,4-Oxadiazole Derivatives of Pyrrolo[3,4-d]pyridazinone as Promising Cyclooxygenase Inhibitors” (International Journal of Molecular Sciences, 2021).

Key:
COX-2 = target: T1, COX-2 (Homo sapiens, UniProt P35354); assay: colorimetric COX peroxidase assay (Cayman […]), […] nm; type: biochemical; conditions: read-out: IC50 [μM] (SD) / COX-2
T1 construct: gene PTGS2; kit is understood to hold human recombinant COX-2 (docking used PDB 4M11, not the assay protein)
T1 sequence (P35354 18-604): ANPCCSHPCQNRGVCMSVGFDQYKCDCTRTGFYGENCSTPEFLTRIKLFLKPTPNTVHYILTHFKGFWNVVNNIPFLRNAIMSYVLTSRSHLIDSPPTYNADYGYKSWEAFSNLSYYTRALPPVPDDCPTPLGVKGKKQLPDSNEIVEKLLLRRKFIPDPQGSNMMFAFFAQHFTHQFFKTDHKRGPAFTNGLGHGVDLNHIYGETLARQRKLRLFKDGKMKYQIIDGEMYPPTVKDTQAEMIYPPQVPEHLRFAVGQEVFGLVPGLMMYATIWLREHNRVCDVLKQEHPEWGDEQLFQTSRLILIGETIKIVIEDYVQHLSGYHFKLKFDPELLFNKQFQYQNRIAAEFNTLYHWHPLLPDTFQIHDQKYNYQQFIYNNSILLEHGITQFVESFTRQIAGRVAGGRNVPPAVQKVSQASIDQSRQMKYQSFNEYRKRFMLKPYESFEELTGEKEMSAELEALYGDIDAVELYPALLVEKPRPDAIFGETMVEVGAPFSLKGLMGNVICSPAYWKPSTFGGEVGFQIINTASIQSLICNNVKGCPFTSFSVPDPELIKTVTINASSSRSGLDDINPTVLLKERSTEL

COX-1 = target: T2, COX-1 (Ovis aries, UniProt P05979); assay: colorimetric COX peroxidase assay (Cayman […]), […] nm; type: biochemical; conditions: read-out: IC50 [μM] (SD) / COX-1
T2 construct: gene PTGS1; kit is understood to hold ovine COX-1
T2 sequence (P05979 25-600): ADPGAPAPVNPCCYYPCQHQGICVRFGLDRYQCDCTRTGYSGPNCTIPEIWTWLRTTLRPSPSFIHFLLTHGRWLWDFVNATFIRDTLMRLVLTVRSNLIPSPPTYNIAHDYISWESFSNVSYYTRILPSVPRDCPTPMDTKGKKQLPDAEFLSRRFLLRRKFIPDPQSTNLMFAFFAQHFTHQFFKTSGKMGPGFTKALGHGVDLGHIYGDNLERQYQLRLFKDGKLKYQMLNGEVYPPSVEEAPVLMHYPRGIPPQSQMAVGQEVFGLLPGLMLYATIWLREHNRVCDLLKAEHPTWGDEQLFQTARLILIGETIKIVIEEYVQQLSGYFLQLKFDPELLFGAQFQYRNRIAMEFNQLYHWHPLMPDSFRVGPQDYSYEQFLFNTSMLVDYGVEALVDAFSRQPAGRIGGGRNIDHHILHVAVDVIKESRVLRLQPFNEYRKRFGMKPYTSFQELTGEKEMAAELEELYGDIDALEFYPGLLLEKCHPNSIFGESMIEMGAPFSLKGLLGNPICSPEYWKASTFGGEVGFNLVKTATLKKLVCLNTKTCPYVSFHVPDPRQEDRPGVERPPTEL

IC50 (COX-2) [µM]	IC50 (COX-1) [µM]	Structure (SMILES)
49.2	50.2	Cc1c2c(OCc3nn(CN4CCN(c5ccc(Cl)c(Cl)c5)CC4)c(=S)o3)nn(C)c(=O)c2c(C)n1-c1ccccc1 [4a, 3,5,7-Trimethyl-6-phenyl-1-[[4-[(4-(3,4-dichlorophenyl)piperazin-1-yl)methyl]-2-thioxo-1,3,4-oxadiazol-5-yl]methoxy]pyrrolo[3,4-d]pyridazin-4-one]
57.3	56.8	CCCCn1c(C)c2c(OCc3nn(CN4CCN(c5ccc(Cl)c(Cl)c5)CC4)c(=S)o3)nn(C)c(=O)c2c1C [4b, 3,5,7-Trimethyl-6-butyl-1-[[4-[(4-(3,4-dichlorophenyl)piperazin-1-yl)methyl]-2-thioxo-1,3,4-oxadiazol-5-yl]methoxy]pyrrolo[3,4-d]pyridazin-4-one]
50.1	53.2	Cc1ccc(C)c(N2CCN(C(=O)CSc3nnc(COc4nn(C)c(=O)c5c(C)n(-c6ccccc6)c(C)c45)o3)CC2)c1 [5a, 3,5,7-trimethyl-1-[[2-[2-oxo-2-(4-(2,5-dimethylphenyl)piperazin-1-yl)ethyl]sulfanyl-1,3,4-oxadiazol-5-yl]methoxy]-6-phenyl-pyrrolo[3,4-d]pyridazin-4-one]
53.8	51.8	CCCCn1c(C)c2c(OCc3nnc(SCC(=O)N4CCN(c5cc(C)ccc5C)CC4)o3)nn(C)c(=O)c2c1C [5b, 3,5,7-trimethyl-1-[[2-[2-oxo-2-(4-(2,5-dimethylphenyl)piperazin-1-yl)ethyl]sulfanyl-1,3,4-oxadiazol-5-yl]methoxy]-6-butyl-pyrrolo[3,4-d]pyridazin-4-one]
50.2	52.3	Cc1c2c(OCc3nnc(SCC(=O)N4CCN(c5ccc(F)cc5F)CC4)o3)nn(C)c(=O)c2c(C)n1-c1ccccc1 [6a, 3,5,7-trimethyl-1-[[2-[2-oxo-2-(4-(2,4-difluorophenyl)piperazin-1-yl)ethyl]sulfanyl-1,3,4-oxadiazol-5-yl]methoxy]-6-phenyl-pyrrolo[3,4-d]pyridazin-4-one]
50.1	51.1	CCCCn1c(C)c2c(OCc3nnc(SCC(=O)N4CCN(c5ccc(F)cc5F)CC4)o3)nn(C)c(=O)c2c1C [6b, 3,5,7-trimethyl-1-[[2-[2-oxo-2-(4-(2,4-difluorophenyl)piperazin-1-yl)ethyl]sulfanyl-1,3,4-oxadiazol-5-yl]methoxy]-6-butyl-pyrrolo[3,4-d]pyridazin-4-one]
50.3	51.6	Cc1c2c(OCc3nnc(SCC(=O)N4CCN(c5ccc(Cl)c(Cl)c5)CC4)o3)nn(C)c(=O)c2c(C)n1-c1ccccc1 [7a, 3,5,7-trimethyl-1-[[2-[2-oxo-2-(4-(3,4-dichloro)piperazin-1-yl)ethyl]sulfanyl-1,3,4-oxadiazol-5-yl]methoxy]-6-phenyl-pyrrolo[3,4-d]pyridazin-4-one]
49.5	50.9	CCCCn1c(C)c2c(OCc3nnc(SCC(=O)N4CCN(c5ccc(Cl)c(Cl)c5)CC4)o3)nn(C)c(=O)c2c1C [7b, 3,5,7-trimethyl-1-[[2-[2-oxo-2-(4-(3,4-dichlorophenyl)piperazin-1-yl)ethyl]sulfanyl-1,3,4-oxadiazol-5-yl]methoxy]-6-butyl-pyrrolo[3,4-d]pyridazin-4-one]

Continued, compound first:

Structure (SMILES)	IC50 (COX-2) [µM]	IC50 (COX-1) [µM]
Cc1c2c(OCc3n[nH]c(=S)o3)nn(C)c(=O)c2c(C)n1-c1ccccc1 [1a]	43.6	130
CCCCn1c(C)c2c(OCc3n[nH]c(=S)o3)nn(C)c(=O)c2c1C [1b]	63.4	138
Cc1ccc(C)c(N2CCN(Cn3nc(COc4nn(C)c(=O)c5c(C)n(-c6ccccc6)c(C)c45)oc3=S)CC2)c1 [2a, 3,5,7-Trimethyl-6-phenyl-1-[[4-[(4-(2,5-dimethylphenyl)piperazin-1-yl)methyl]-2-thioxo-1,3,4-oxadiazol-5-yl]methoxy]pyrrolo[3,4-d]pyridazin-4-one]	49.7	50.3
CCCCn1c(C)c2c(OCc3nn(CN4CCN(c5cc(C)ccc5C)CC4)c(=S)o3)nn(C)c(=O)c2c1C [2b, 3,5,7-Trimethyl-6-butyl-1-[[4-[(4-(2,5-dimethylphenyl)piperazin-1-yl)methyl]-2-thioxo-1,3,4-oxadiazol-5-yl]methoxy]pyrrolo[3,4-d]pyridazin-4-one]	49.4	50
Cc1c2c(OCc3nn(CN4CCN(c5ccc(F)cc5F)CC4)c(=S)o3)nn(C)c(=O)c2c(C)n1-c1ccccc1 [3a, 3,5,7-Trimethyl-6-phenyl-1-[[4-[(4-(2,4-difluorophenyl)piperazin-1-yl)methyl]-2-thioxo-1,3,4-oxadiazol-5-yl]methoxy]pyrrolo[3,4-d]pyridazin-4-one]	49.7	50.3
CCCCn1c(C)c2c(OCc3nn(CN4CCN(c5ccc(F)cc5F)CC4)c(=S)o3)nn(C)c(=O)c2c1C [3b]	56	54.3
